The nature of series [1]: Toxicity/tolerance of sodium stibogluconate in nude mice. Format: in vivo. On the procedure:
The dosage of sodium stibogluconate corresponds to approximately 440 mg Sb/kg body weight (average mouse body weight 27 g), substantially higher than the standard therapeutic dose of 20 mg Sb/kg and the high dose (143 mg Sb/kg) that was clinically used by accident without serious toxicity. This dose of sodium stibogluconate was based on a previous observation in a pilot study that mice could tolerate daily dose of 20 mg Sb (approximately 700-800 mg Sb/kg). […] In light of the relatively rapid rate of clearance of the drug in vivo, 440 mg Sb/kg dosage was used to ensure the detection of the effectiveness of the drug for this initial study.
As discussed above, the dosage of sodium stibogluconate used for the treatment of nude mice was 12 mg Sb/mouse, s.c., daily (or approximately 440 mg/kg body weight). This dosage is much higher than the standard dose for leishmaniasis (20 mg Sb/kg, daily). As an initial step to assess the toxicity of such a high dosage of sodium stibogluconate in nude mice, the effect of sodium stibogluconate on the viability and body weights of WM9 xenografts nude mice during the 25 day period of the study was determined.

The subject of series [2] is LoVo cells. Put plainly: LoVo colon cancer cell growth, MTT assay. Format: cell-based, human. To be noted: 100 μg/ml, day 6. The protocol: (§1) NIH3T3 (Yi, et al., Blood 85, 87 (1995)), WM9 (Forsberg, et al., Proc. Nat. Acad Sci. USA 90, 393 (1993)), DU145 (Mickey, et al., Cancer Res. 37, 4049 (1977)), LoVo (Drewinko, et al., Cancer Res. 36, 467 (1976)), HEY (Buick, et al., Cancer Res. 45, 3668 (1985)), U251 (Yoshida, et al., Cancer 50, 410 (1982)), A549 (Giard, et al., J. Natl. Cancer Inst. 51, 1417 (1973)) and SK-N-SH (Helson, et al., Cancer Res. 35, 2594 (1975)) cell lines have been described and were cultured in RPMI 1640 supplemented with 10% fetal calf serum (FCS). For measurement of sodium stibogluconate effects on cell growth in vitro, cells were cultured in the absence (−) or presence (+) of various amounts of sodium stibogluconate for 6 days with viable cells quantified by MTT assays (Mosmann, J. Immunol. Methods 65, 55 (1983)). Percentages of growth inhibition by sodium stibogluconate were calculated (.+−.x

Series [3] has as its target T1, intracellular Flag-PRL-1 (Homo sapiens, UniProt Q93096).
T1 construct: expressed in transfected cells; host or cells: NIH3T3 (A51) or WM9 (A61) transfectants, pBabepuro vector
Put plainly: Immunocomplex PTPase assay, Flag-PRL-1 NIH3T3 transfectants. In kind it is cell-based, mouse. To be noted: 5 min treatment. The protocol: Immunocomplex PTPase assays were performed to assess the effects of sodium stibogluconate on intracellular PTPases. Cells were untreated or treated with sodium stibogluconate for 5 minutes, washed with fresh medium and then lysed in cold lysis buffer (50 mM Tris, pH 7.4; 150 mM NaCl; 1% NP40; 2 mM PMSF; 20, g/ml of Aprotinin). The lysates were incubated with an anti-Flag antibody in immunoprecipitation assays. The immunocomplexes were collected with protein G sepharose beads (Pharmacia) and washed in cold lysis buffer for 4 times. […] 100 µL of malachite green solution (UBI) was added to each reaction prior to measurement of OD660 to quantify the amounts of free phosphate cleaved by the PTPases from the peptide substrate (Pathak et al., J. Imumol. 167, 3391 (2001)). The remaining 10% contents of individual samples were analyzed by SDS-PAGE/Western blotting to quantify the relative amounts of the phosphatase proteins. […]
The effects of sodium stibogluconate on intracellular PTPases were assessed using NIH3T3 or WM9 transfectants. […]

Series [4] deals with WM35 cells. Put plainly: WM35 melanoma cell growth. Format: cell-based, human. The protocol:
For cell proliferation assays, cells were grown in 10% FCS culture medium containing various amounts of IFNs and/or sodium stibogluconate in 96 well plates and cultured at 37° C. for 3 or 6 days as indicated. The numbers of viable cells in proliferation assays were determined by MTT assays as described in Phatak et al., J. Immunol. 167, 3391 (2001).

Series [5] has as its system WM9 transfectants. The series is described as follows: Growth of WM9 transfectants, MTT assay. In kind it is cell-based, human. To be noted: 50 or 100 μg/ml, 6 days. On the procedure: as §1
The effects of sodium stibogluconate on intracellular PTPases were assessed using NIH3T3 or WM9 transfectants. NIH3T3 or WM9 cells were transfected with the pBabepuro vector (V) or pBabepuro expression constructs of Flag-tagged PRLs using Lipofectamine (BRL) following the manufacturer's procedures. […]

In series [6] the test system is GSTm8. The series is described as follows: In vitro PTPase assay, GSTm8. In kind it is biochemical. To be noted: 3-4 μg/ml or 10-100 μg/ml. From the text: In vitro PTPase assays were used to determine the effects of levamisole (Sigma), pentamidine (American Pharmaceutical Partners, Inc.), and ketoconazole (Sigma) on recombinant PTPases, following established procedures (Pathak et al., J. Imumol. 167, 3391 (2001); Pathak et al., Leukemia 16, 2285 (2002), Yi et al., J. Immunol. 169, 5978 (2002)) using a synthetic phosphotyrosine peptide or DiFMUP as the substrate as detailed above in section I.A.2.

T1 sequence (Q93096 whole entry): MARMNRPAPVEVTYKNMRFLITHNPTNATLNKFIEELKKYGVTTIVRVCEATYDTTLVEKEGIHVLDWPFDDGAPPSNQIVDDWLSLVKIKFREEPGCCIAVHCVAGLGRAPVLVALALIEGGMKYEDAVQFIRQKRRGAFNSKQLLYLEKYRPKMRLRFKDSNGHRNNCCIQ

Turning to `O.O.O.O.O.O.O.O.O.O=C([O-])[C@@H]1[O][Sb]2([O-])([O][Sb]34([OH])[O][C@H]([C@H](O)CO)[C@H]([O]3)[C@H](C(=O)[O-])[O]4)[O][C@H]([C@H](O)CO)[C@@H]1[O]2.[Na+].[Na+].[Na+]` [sodium stibogluconate], the “tolerability” value in series [1] (12 mg Sb daily (440 mg Sb/kg daily)) is listed as “well tolerated with no serious side effects”. For the same compound, in series [1] (pilot study), the “tolerated daily dose in mice” value was 20 mg Sb and the “tolerated daily dose in mice per body weight” value is 700-800 mg Sb/kg. Further, the “internal organs on dissection” value in series [1] (two mice from each group) is on record as “no apparent abnormality of the internal organs”. In addition, in series [1] (until day 25, 4 mice/group), the “survival of WM9-inoculated nude mice” value is given as “survived”. In series [2], the “killing of LoVo cells” value is “near-complete cell killing”. Also, in series [3], the “PTPase activity of Flag-PRL-1 immunocomplexes from treated cells” value is “little PTPase activities”. Besides, the “effect on WM35 cells” value in series [4] is listed as “minimally affected”. Also, the “growth of R86 cells” value in series [5] is “only modest growth inhibition”.

For `CC(=O)N1CCN(c2ccc(OCC3COC(Cn4ccnc4)(c4ccc(Cl)cc4Cl)O3)cc2)CC1` (centres unmarked) [ketoconazole], the “inhibitory activity against GSTm8” value in series [6] is on record as “no obvious inhibitory activity”.

`N=C(N)c1ccc(OCCCCCOc2ccc(C(=N)N)cc2)cc1` [pentamidine]: the “inhibitory activity against GSTm8” value in series [6] is reported as “no obvious inhibitory activity”.
